Measured values from patent US10975056B2 (GlaxoSmithKline Intellectual Property Development Limited, priority 2016, dated 2021).
Several values for one entry are separate records, joined by “and”; a condition that tells them apart may be missing. Identical values can stand only once. Counter-ions that a name gives are not always drawn. Like-named read-outs stand apart in the source and are kept apart here.

Assays:
[1] = tested on: erythroid progenitor cells (EPCs); assay: Fetal hemoglobin (HbF) ELISA in day 7 erythroid progenitor cells; format: cell-based, human; conditions: HbF ELISA, day 7 EPCs, 5 days; for EC50: Homo sapiens, Erythroid progenitor cell, read-out: EPC ELISA (pEC50 category) (converted);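 on all read-outs here: for fetal hemoglobin induction normalized to vehicle-treated cells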
Summary of the method: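 Day 7 EPCs from human bone marrow CD34+ cells were plated at 1,000 cells/well in media with 3 U/mL rhEPO. They were exposed to a 22-point dilution ([…]) for 5 days at 37 °C. Lysate HbF was measured by sandwich ELISA (OD450) and normalized to DMSO control wells.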

[2] = target: DNMT1 (Homo sapiens, UniProt P26358); assay: DNMT1 biochemical activity, breaklight assay and/or SPA assay
[3] = binned activity in either the breaklight or the SPA assay
[4] = binned activity in either the breaklight or the SPA assay, read-out: DNMT1 BioChemical (pIC50 category) (converted)
[5] = breaklight assay and/or SPA assay, repeated experimental runs, read-out: average pIC50 against DNMT1 (converted)

Chain of DNMT1 (P26358 whole entry, looked up): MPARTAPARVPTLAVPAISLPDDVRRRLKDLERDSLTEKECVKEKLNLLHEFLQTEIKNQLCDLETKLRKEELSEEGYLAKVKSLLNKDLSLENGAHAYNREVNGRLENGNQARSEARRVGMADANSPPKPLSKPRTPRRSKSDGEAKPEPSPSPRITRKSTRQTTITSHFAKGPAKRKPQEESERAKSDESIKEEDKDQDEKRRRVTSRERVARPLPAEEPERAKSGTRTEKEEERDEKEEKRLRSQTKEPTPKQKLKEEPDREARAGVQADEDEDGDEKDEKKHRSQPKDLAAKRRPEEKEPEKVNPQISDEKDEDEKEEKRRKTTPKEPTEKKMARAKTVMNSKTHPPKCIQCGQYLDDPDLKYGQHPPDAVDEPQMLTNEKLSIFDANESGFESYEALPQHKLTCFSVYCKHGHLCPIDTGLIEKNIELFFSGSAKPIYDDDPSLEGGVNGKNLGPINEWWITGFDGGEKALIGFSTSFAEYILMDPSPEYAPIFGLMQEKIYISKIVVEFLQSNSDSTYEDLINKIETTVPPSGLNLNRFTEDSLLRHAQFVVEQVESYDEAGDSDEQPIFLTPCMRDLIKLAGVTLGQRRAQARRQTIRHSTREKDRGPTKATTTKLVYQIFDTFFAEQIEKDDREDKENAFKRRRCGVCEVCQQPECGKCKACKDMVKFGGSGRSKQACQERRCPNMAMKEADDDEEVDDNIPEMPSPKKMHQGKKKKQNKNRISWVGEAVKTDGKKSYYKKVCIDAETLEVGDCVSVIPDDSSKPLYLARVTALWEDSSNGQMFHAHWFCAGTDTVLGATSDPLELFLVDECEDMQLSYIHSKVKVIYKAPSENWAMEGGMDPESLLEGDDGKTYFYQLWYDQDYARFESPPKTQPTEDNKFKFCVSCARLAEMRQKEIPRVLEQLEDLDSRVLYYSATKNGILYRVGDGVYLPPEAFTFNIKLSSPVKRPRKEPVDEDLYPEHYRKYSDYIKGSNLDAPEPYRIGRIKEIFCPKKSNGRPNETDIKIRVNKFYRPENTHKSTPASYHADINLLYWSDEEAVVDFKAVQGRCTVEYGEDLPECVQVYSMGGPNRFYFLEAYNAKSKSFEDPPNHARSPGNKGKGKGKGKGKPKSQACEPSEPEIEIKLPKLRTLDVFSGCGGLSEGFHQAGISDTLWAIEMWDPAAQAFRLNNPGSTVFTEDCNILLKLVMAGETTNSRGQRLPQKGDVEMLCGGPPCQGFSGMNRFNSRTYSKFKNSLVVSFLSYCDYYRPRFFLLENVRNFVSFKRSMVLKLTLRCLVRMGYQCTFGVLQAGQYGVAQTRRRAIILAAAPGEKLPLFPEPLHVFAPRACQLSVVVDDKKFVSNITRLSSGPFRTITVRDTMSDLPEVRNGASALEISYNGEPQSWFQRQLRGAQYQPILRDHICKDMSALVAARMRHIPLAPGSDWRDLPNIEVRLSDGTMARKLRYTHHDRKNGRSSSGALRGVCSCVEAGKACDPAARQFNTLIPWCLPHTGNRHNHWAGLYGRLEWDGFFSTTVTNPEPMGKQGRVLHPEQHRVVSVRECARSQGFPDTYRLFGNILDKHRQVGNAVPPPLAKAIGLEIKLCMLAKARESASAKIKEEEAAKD

Row | Compound | EC50 [1] [nM] | DNMT1 BioChemical (pIC50 category) [2, 3] | IC50 [2, 4] [nM] | IC50 [2, 5] | EPC ELISA (pEC50 category) [1]
1 | CCc1c(C#N)c(SC(C(N)=O)c2ccccc2)nc(N(C)CC(=O)N(C)CC2(CO)CC2)c1C#N (centres unmarked) [Example 609, 2-((6-((2-amino-2-oxo-1-phenylethyl)thio)-3,5-dicyano-4-ethylpyridin-2-yl)(methyl)amino)-N-((1-(hydroxymethyl)cyclopropyl)methyl)-N-methylacetamide] | < 316 | D (Category D: ≥6.5) |  |  | 
2 | CCc1c(C#N)c(SCc2ccc(N(C)S(C)(=O)=O)cc2)nc(N2CCOC(CNC)C2)c1C#N (centres unmarked) [Example 596, N-(4-(((3,5-dicyano-4-ethyl-6-(2-((methylamino)methyl)morpholino)pyridin-2-yl)thio)methyl)phenyl)-N-methylmethanesulfonamide] | 316 to 1000 | D (Category D: ≥6.5) |  |  | 
3 | CCc1c(C#N)c(C)nc(SCc2ccc(CNC(C)=O)cc2)c1C#N [Example 284, N-(4-(((3,5-Dicyano-4-ethyl-6-methylpyridin-2-yl)thio)methyl)benzyl)acetamide] | > 31600 |  | 316 to 1000 |  | 
4 | CCc1c(C#N)c(SCc2ccc(N(C)S(C)(=O)=O)cc2)nc(N(C)CCNCC(C)(C)C)c1C#N [Example 458, N-(4-(((3,5-dicyano-4-ethyl-6-(methyl(2-(neopentylamino)ethyl)amino)pyridin-2-yl)thio)methyl)phenyl)-N-methylmethanesulfonamide] | < 316 | D (Category D: ≥6.5) |  |  | 
5 | CCc1c(C#N)c(SC(C(N)=O)c2ccccc2)nc(N2CCC(N3[C@@H](C)CC[C@@H]3C)CC2)c1C#N (stereo partly drawn) [Example 462, 2-((3,5-dicyano-6-(4-((2S,5S)-2,5-dimethylpyrrolidin-1-yl)piperidin-1-yl)-4-ethylpyridin-2-yl)thio)-2-phenylacetamide] | < 316 | D (Category D: ≥6.5) |  |  | 
6 | CCc1c(C#N)c(SCc2ccc(N(C)S(C)(=O)=O)cc2)nc(N(C)CCNCCF)c1C#N [Example 500] | 1000 to 31600 | D (Category D: ≥6.5) |  |  | 
7 | CCc1c(C#N)c(SCc2ccc(CNC(=O)CCN)cc2)nc(N(C)C)c1C#N [Example 279, 3-Amino-N-(4-(((3,5-dicyano-6-(dimethylamino)-4-ethylpyridin-2-yl)thio)methyl)benzyl)propanamide] | > 31600 |  | 316 to 1000 | ≥ 1000 nM and 1000 nM | 
8 | CCc1c(C#N)c(S[C@@H](C(N)=O)c2ccccc2)nc(N2CC[C@@H](O)C2)c1C#N [Example 134, (R)-2-((3,5-Dicyano-4-ethyl-6-((R)-3-hydroxypyrrolidin-1-yl)pyridin-2-yl)thio)-2-phenylacetamide] | 1000 to 31600 |  | 316 to 1000 |  | 
9 | CCc1c(C#N)c(S[C@@H](C(N)=O)c2ccccc2)nc(N2CC[C@](O)(CN)C2)c1C#N [Example 624, (R)-2-((6-((S)-3-(aminomethyl)-3-hydroxypyrrolidin-1-yl)-3,5-dicyano-4-ethylpyridin-2-yl)thio)-2-phenylacetamide] |  | D (Category D: ≥6.5) |  |  | B (Category B: 4.5 ≤ x < 6.0)
10 | CCc1c(C#N)c(SC(C(N)=O)c2ccccc2)nc(N(C)CC(=O)N2CCCC2)c1C#N (centres unmarked) [Example 620, 2-((3,5-dicyano-4-ethyl-6-(methyl(2-oxo-2-(pyrrolidin-1-yl)ethyl)amino)pyridin-2-yl)thio)-2-phenylacetamide] | < 316 | D (Category D: ≥6.5) |  |  | 
11 | CCc1c(C#N)c(N[C@@H](C(N)=O)c2ccccc2)nc(N2CCCN(CC)CC2)c1C#N [Example 162, (R)-2-((3,5-Dicyano-4-ethyl-6-(4-ethyl-1,4-diazepan-1-yl)pyridin-2-yl)amino)-2-phenylacetamide] | 1000 to 31600 |  | 1000 to 31600 |  | 
12 | CCc1c(C#N)c(S[C@H](C(N)=O)c2ccccc2)nc(N2CC[C@@H](N)[C@@H](F)C2)c1C#N [Example 531, (S)-2-((6-((3S,4R)-4-amino-3-fluoropiperidin-1-yl)-3,5-dicyano-4-ethylpyridin-2-yl)thio)-2-phenylacetamide • (0.67)2,2,2-trifluoroacetate • (0.33)methanesulfonate] | < 316 |  | 1000 to 31600 | ≥ 1000 nM and 1580 nM | 
13 | CCc1c(Cl)c(SC(C(N)=O)c2ccccc2)nc(N2CCCN(CCO)CC2)c1Cl (centres unmarked) [Example 203, 2-((3,5-Dichloro-4-ethyl-6-(4-(2-hydroxyethyl)-1,4-diazepan-1-yl)pyridin-2-yl)thio)-2-phenylacetamide] | > 31600 |  | 316 to 1000 |  | 
14 | CCc1c(C#N)c(SC(C(N)=O)c2ccccc2)nc(N(C)CCONC(=N)N)c1C#N (centres unmarked) [Example 644, 2-((3,5-dicyano-4-ethyl-6-((2-(guanidinooxy)ethyl)(methyl)amino)pyridin-2-yl)thio)-2-phenylacetamide] | 1000 to 31600 | D (Category D: ≥6.5) |  |  | 
15 | CCc1c(C#N)c(SC(C(N)=O)c2cccc(F)n2)nc(N2CCCN(C)CC2)c1C#N (centres unmarked) [Example 206, 2-((3,5-Dicyano-4-ethyl-6-(4-methyl-1,4-diazepan-1-yl)pyridin-2-yl)thio)-2-(6-fluoropyridin-2-yl)acetamide] | > 31600 |  | 316 to 1000 |  | 
16 | CCc1c(C#N)c(SC(C(N)=O)c2ccccc2)nc(N(C)CC(=O)N(C)CC(C)(C)CO)c1C#N (centres unmarked) [Example 615, 2-((6-((2-amino-2-oxo-1-phenylethyl)thio)-3,5-dicyano-4-ethylpyridin-2-yl)(methyl)amino)-N-(3-hydroxy-2,2-dimethylpropyl)-N-methylacetamide] | < 316 | D (Category D: ≥6.5) |  |  | 
17 | CCc1c(C#N)c(OCCN(C)C)nc(SC(C(N)=O)c2ccccc2)c1C#N (centres unmarked) [Example 174, 2-((3,5-Dicyano-6-(2-(dimethylamino)ethoxy)-4-ethylpyridin-2-yl)thio)-2-phenylacetamide] | 316 to 1000 |  | 316 to 1000 |  | 
18 | CN(CC(=O)NCCN)c1nc(SC(C(N)=O)c2ccccc2)c(C#N)c(C2CC2)c1C#N (centres unmarked) [Example 619, 2-((6-((2-amino-2-oxo-1-phenylethyl)thio)-3,5-dicyano-4-cyclopropylpyridin-2-yl)(methyl)amino)-N-(2-aminoethyl)acetamide hydrochloride] | 1000 to 31600 | D (Category D: ≥6.5) |  |  | 
19 | CCc1c(C#N)c(SCc2ccc(NC(=O)OC(C)(C)C)cc2)nc(N2CCCN(C)CC2)c1C#N [Example 296, tert-Butyl (4-(((3,5-dicyano-4-ethyl-6-(4-methyl-1,4-diazepan-1-yl)pyridin-2-yl)thio)methyl)phenyl)carbamate] | > 31600 |  | 316 to 1000 |  | 
20 | CCc1c(C#N)c(SC(C(N)=O)c2ccccc2)nc(N(C)CCN(C)CC)c1C#N (centres unmarked) [Example 483, 2-(3,5-dicyano-4-ethyl-6-((2-(ethyl(methyl)amino)ethyl)(methyl)amino)pyridin-2-ylthio)-2-phenylacetamide] | < 316 | D (Category D: ≥6.5) |  |  | 
21 | CCc1c(C#N)c(SC(C(N)=O)c2ccccc2)nc(N2CCC(NC3CCC3)CC2)c1C#N (centres unmarked) [Example 448, 2-((3,5-dicyano-6-(4-(cyclobutylamino)piperidin-1-yl)-4-ethylpyridin-2-yl)thio)-2-phenylacetamide] | < 316 | D (Category D: ≥6.5) |  |  | 
